As usually defined, the IC50 is the concentration at which inhibition is half-maximal.

The assay deals with T1, PI3Kγ (p101/p110γ protein) (Homo sapiens, UniProt P48736).
T1 construct: HA; made in house; host or cells: Spodoptera frugiperda (Sf9) cells, baculovirus co-infection
T1 sequence (P48736 whole entry, species assumed): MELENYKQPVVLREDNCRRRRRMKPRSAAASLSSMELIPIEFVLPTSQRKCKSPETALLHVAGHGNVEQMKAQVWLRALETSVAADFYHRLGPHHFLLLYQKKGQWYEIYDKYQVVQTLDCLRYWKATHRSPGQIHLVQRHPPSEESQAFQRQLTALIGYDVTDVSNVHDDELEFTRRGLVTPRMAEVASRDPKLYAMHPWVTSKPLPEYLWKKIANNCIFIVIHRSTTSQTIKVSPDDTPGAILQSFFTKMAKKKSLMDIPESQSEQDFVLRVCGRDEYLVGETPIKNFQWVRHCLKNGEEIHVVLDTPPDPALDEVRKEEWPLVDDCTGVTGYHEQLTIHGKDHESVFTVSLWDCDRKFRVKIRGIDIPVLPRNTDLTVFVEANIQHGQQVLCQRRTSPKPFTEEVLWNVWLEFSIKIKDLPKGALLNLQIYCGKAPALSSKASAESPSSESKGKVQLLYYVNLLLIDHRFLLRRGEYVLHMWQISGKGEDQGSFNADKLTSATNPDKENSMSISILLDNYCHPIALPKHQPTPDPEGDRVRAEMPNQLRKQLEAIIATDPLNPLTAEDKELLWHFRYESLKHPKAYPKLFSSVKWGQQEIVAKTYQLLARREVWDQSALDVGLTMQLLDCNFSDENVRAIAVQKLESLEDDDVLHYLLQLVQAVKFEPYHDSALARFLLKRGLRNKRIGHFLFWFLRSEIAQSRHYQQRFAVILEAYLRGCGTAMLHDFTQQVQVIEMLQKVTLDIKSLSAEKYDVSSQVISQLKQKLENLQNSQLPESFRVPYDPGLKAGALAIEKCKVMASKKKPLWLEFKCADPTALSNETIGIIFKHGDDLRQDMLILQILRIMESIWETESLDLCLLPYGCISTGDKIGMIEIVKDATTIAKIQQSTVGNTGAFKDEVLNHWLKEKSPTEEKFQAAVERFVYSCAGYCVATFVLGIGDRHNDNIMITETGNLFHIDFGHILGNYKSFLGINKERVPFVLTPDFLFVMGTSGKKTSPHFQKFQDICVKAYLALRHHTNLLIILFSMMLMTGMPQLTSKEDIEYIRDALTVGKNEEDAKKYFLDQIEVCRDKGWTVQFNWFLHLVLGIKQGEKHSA
T1 sequence (Q8WYR1 whole entry partner, species assumed): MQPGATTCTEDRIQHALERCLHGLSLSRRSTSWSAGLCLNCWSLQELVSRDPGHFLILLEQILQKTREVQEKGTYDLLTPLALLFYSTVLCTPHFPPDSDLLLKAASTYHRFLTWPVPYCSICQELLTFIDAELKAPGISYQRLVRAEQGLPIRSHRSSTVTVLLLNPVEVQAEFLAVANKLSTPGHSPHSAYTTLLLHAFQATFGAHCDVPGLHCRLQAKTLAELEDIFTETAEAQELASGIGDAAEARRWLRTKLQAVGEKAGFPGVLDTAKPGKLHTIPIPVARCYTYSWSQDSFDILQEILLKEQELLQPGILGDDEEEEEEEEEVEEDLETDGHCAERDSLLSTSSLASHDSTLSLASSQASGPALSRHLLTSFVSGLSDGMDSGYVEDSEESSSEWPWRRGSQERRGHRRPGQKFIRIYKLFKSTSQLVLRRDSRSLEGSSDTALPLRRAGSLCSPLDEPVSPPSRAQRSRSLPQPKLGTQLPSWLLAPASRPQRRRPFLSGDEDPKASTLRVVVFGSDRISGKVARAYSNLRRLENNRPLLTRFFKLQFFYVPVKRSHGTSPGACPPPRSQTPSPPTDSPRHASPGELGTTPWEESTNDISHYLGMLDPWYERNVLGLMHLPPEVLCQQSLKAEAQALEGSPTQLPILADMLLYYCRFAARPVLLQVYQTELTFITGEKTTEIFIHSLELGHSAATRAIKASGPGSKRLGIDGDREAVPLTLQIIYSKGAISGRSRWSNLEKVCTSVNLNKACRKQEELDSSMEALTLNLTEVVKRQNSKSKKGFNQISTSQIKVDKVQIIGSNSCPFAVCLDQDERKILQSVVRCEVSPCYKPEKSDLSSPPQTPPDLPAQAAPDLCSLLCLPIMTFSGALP
The experiment in a line: PI3Kγ In Vitro Kinase Assay. Format: biochemical. The settings on record: purified recombinant p101/p110γ with G protein β1/γ2 subunits; 20 μM ATP, 25 μM PIP2; 20 minutes at room temperature. The method in brief: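 Sf9-expressed, purified human p101/p110γ (2.7 nM) was activated by Gβ1/γ2 (57.7 nM) and reacted with 20 μM ATP plus [γ-32P]ATP on PIP2 (25 μM)/PE (300 μM) micelles with 10 mM MgCl2 in HEPES buffer. Reactions ran 20 min at room temperature. Filter-captured radiolabeled PIP3 was counted by scintillation.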
On to `CC(=O)OCc1ccccc1CN1C(=O)COc2ccc(C=C3SC(=S)NC3=O)cc21` [Example 22, Acetic acid 2-[3-oxo-6-(4-oxo-2-thioxo-thiazolidin-5-ylidenemethyl)-2,3-dihydro-1,4-benzoxazin-4-ylmethyl]-benzyl ester], for which the IC50 came out at 17 nM.

For `O=C1NC(=S)SC1=Cc1ccc2c(c1)N(Cc1ccc(Oc3cccc4ccccc34)cc1)C(=O)CO2` [Example 25, 4-[4-(Naphthalen-1-yloxy)-benzyl]-6-(4-oxo-2-thioxo-thiazolidin-5-ylidenemethyl)-4H-1,4-benzoxazin-3-one], the IC50 is 8 nM.

On to `Cc1cc(C)nc(CN2C(=O)COc3ccc(C=C4SC(=S)NC4=O)cc32)n1` [Example 232, 4-(4,6-Dimethyl-pyrimidine-2-ylmethyl)-6-(4-oxo-2-thioxo-thiazolidin-5-ylidenemethyl)-4H-benzo[1,4]oxazin-3-one], for which the concentration for half-maximal inhibition (IC50) is 125 nM.

On to `O=C1NC(=S)S/C1=C\c1cc(F)c2c(c1)N(Cc1cc(C(F)(F)F)cc(C(F)(F)F)c1)C(=O)CO2` [Example 273, 4-(3,5-Bis-trifluoromethyl-benzyl)-8-fluoro-6-[4-oxo-2-thioxo-thiazolidin-(5Z)-ylidenemethyl]-4H-benzo[1,4]oxazin-3-one], for which the IC50 is 121 nM.

As for `O=C1NC(=S)SC1=Cc1ccc2c(c1)N(CCc1cc(C(F)(F)F)cc(C(F)(F)F)c1)C(=O)CO2` [Example 113, 4-[2-(Bis-trifluromethyl-phenyl)-ethyl]-6-(4-oxo-2-thioxo-thiazolidin-5-ylidenmethyl)-4H-benzo[1,4]oxazin-3-one], the half-inhibitory concentration (IC50) worked out at 14 nM.

Take `Cc1cc(CN2C(=O)COc3ccc(C=C4SC(=S)NC4=O)cc32)ccc1F` [Example 306, 4-(4-Fluoro-3-methyl-benzyl)-6-(4-oxo-2-thioxo-thiazolidin-5-ylidenemethyl)-4H-benzo[1,4]oxazin-3-one]: the IC50 was 1 nM.

Turning to `O=C1NC(=S)SC1=Cc1cc(F)c2c(c1)N(CCCN1CCCCC1)C(=O)CO2` [Example 243], the IC50 was determined as 180 nM.

For `O=C1NC(=S)SC1=Cc1ccc2c(c1)N(Cc1ccccc1OC(F)(F)F)C(=O)CO2` [Example 166, 6-(4-Oxo-2-thioxo-thiazolidin-5-ylidenemethyl)-4-(2-trifluoromethoxy-benzyl)-4H-1,4-benzoxazin-3-one], the IC50 came out at 20 nM.

For `Cc1cccc(CCN2C(=O)COc3ccc(C=C4SC(=S)NC4=O)cc32)c1` [Example 101, 6-(4-Oxo-2-thioxo-thiazolidin-5-ylidenmethyl)-4-[2-m-tolyl-ethyl]-4H-benzo[1,4]oxazin-3-one], the IC50 came out at 5 nM.

As for `CCN(CC)Cc1ccc(CN2C(=O)COc3ccc(C=C4SC(=S)NC4=O)cc32)cc1` [Example 21, 4-(4-Diethylaminomethyl-benzyl)-6-(4-oxo-2-thioxo-thiazolidin-5-ylidenemethyl)-4H-1,4-benzoxazin-3-one], the IC50 came out at 14 nM.

With `O=C1NC(=S)SC1=Cc1ccc2c(c1)N(Cc1cccc(C(=O)O)c1)C(=O)CO2` [Example 17, 3-[3-Oxo-6-(4-oxo-2-thioxo-thiazolidin-5-ylidenemethyl)-2,3-dihydro-1,4-benzoxazin-4-ylmethyl]-benzoic acid], the IC50 is 9 nM.

Regarding `N#Cc1cccc(CN2C(=O)COc3ccc(C=C4SC(=S)NC4=O)cc32)c1` [Example 149, 3-[3-Oxo-6-(4-oxo-2-thioxo-thiazolidin-5-ylidenemethyl)-2,3-dihydro-benzo[1,4]oxazin-4-ylmethyl]-benzonitrile], the half-inhibitory concentration (IC50) was determined as 21 nM.

With `CN1CCN(Cc2ccc(CN3C(=O)COc4ccc(C=C5SC(=S)NC5=O)cc43)cc2)CC1` [Example 33, 4-[4-(4-Methyl-piperazin-1-ylmethyl)-benzyl]-6-(4-oxo-2-thioxo-thiazolidin-5-ylidenemethyl)-4H-1,4-benzoxazin-3-one], the concentration for half-maximal inhibition (IC50) was 4 nM.

The values are drawn from patent US7205295B2, “Benzoxazin-3-ones and derivatives thereof as therapeutic agents” (Warner-Lambert Company LLC, priority 2002, dated 2007).
